Assay results as given in PubChem BioAssay (NCI).
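All cell lines were grown in 96-well plates and treated with compound for 48 hours. Here, GI50 denotes the concentration required for 50% inhibition of growth. TGI: total growth inhibition.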

Legend:
Assay in all cases: DTP human tumour cell line panel, 48 h
A549 NSCLC = tested on: A549 NSCLC
BT-549 breast = tested on: BT-549 breast
M14 melanoma = tested on: M14 melanoma
MDA-MB-435 = tested on: MDA-MB-435
NCI-H460 lung = tested on: NCI-H460 lung
OVCAR-4 ovarian = tested on: OVCAR-4 ovarian
SF-268 CNS = tested on: SF-268 CNS
SNB-19 CNS = tested on: SNB-19 CNS
U251 CNS = tested on: U251 CNS
UACC-257 melanoma = tested on: UACC-257 melanoma

SMILES	GI50 (A549 NSCLC) [µM]	TGI (A549 NSCLC) [µM]	GI50 (BT-549 breast) [µM]	TGI (BT-549 breast) [µM]	GI50 (M14 melanoma) [µM]	TGI (M14 melanoma) [µM]	GI50 (MDA-MB-435) [µM]	TGI (MDA-MB-435) [µM]	GI50 (NCI-H460 lung) [µM]	TGI (NCI-H460 lung) [µM]	GI50 (OVCAR-4 ovarian) [µM]	TGI (OVCAR-4 ovarian) [µM]	GI50 (SF-268 CNS) [µM]	TGI (SF-268 CNS) [µM]	GI50 (SNB-19 CNS) [µM]	TGI (SNB-19 CNS) [µM]	GI50 (U251 CNS) [µM]	TGI (U251 CNS) [µM]	GI50 (UACC-257 melanoma) [µM]	TGI (UACC-257 melanoma) [µM]
CC(C)c1ccc(C(=O)Nc2sc3c(c2C#N)CCC(=O)C3)cc1	1.63	> 100	0.306	3.13	0.592	26.4	1.02	5.72	1.14	> 35.9	0.294	1.36	0.432	> 75	0.409	> 100	0.338	> 100	1.73	6.05
COCCOC(=O)NC(=O)Nc1ccc(/C(=N/O)c2ccc(Cl)cc2)cc1	0.284	> 85.3	0.58	39.6	0.0843	18.4	0.092	0.374	0.129	13.7	0.385	54.2	0.209	> 100	0.535	> 100	0.12	33	13	48.9
O=C(Nc1ccc(F)cc1)c1c(NC(=O)C(F)(F)F)sc2c1CCCCC2	2.64	12	2.08	6.85	2.91	13.4	2.69	17	2.13	10	1.65	8.34	2.28	88	1.56	21.4	1.73	> 100	2.21	7.17
O=S(=O)(NCC1CCC(CNc2ccc(Cl)cc2)CC1)c1ccc(-c2ccccc2)cc1 (stereo not given)	9.21	> 50	> 50	> 50	> 50	> 50	> 50	> 50	42.5	> 50	> 50	> 50	> 50	> 50	> 50	> 50	23.5	> 50	> 50	> 50
CN1CCCN(C)C1c1cc([N+](=O)[O-])ccc1O		> 100		> 100		58.5		> 100		> 100		> 100		> 100		> 100		> 100		61.3
NC1CCN(c2nc(Nc3cccc(C(F)(F)F)c3)c3c(=O)[nH]ccc3n2)CC1	1.34	2.99	1.59	3	1.01	2.23	1.09	2.42	1.26	2.8	1.53	3.84			2	3.59	1.73	3.55	2.06	3.98
Clc1ccc2[nH]cc(-c3nc(-c4c[nH]c5ncccc45)cs3)c2c1	2.94	62.4	4.85	17.1	3.2	11.1	3.44	14.8	2.56	9.15	2.85	36.5	5.06	32.4	5.97	43.9	3.17	13.2	2.56	6.78
CCOC(=O)c1[nH]c(-c2ccc(Cl)cc2)cc1-c1cccnc1	0.812	> 100	0.27	1.46			0.279	1.42	0.449	> 100	10.2	> 100	2.36	> 100	8.33	> 100	0.622	> 100	> 100	> 100
COC(=O)c1c2c(c(C)[n+]([O-])c1C)C(=O)C=C(NCc1ccc(F)c(F)c1)C2=O	0.48	2.2	1.12	2.42	0.274	1.38	0.131	0.27	0.45	1.79	0.177	0.666	1.07	3.32	1.08	2.29	0.458	1.72	0.225	0.657
O=C(NCCCNc1cc(-c2cn(-c3ccccc3)nc2-c2cccc(O)c2)ccn1)c1ccccc1	4.62	34.4	2.72	9.47	2.56	6.72	1.87	4.75	3.61	18.7	3.56	77.3	3.74	> 100	7.75	> 100	4.12	21	2.07	4.4
O=C1C=C(Br)C(=O)C12CCc1ccccc12 (stereo not given)		55.4		34.2		19.3		31.8		48		52.4		58.7		66.6		41.8		41.3
Cc1nc2sc(C(=O)Nc3cccc4ccccc34)c(N)c2cc1C(=O)c1ccccc1	0.403	> 50	1.87	> 50	1.23	> 50			0.727	6.32	3.21	> 50	3.54	> 50	2.41	> 50	1.97	> 50	> 50	> 50
COC1CC2C=C(C)/C=C/C=C/C(=O)NC(c3ccccc3)C/C=C/CCC(O)CC(=O)C2=C1O (stereo not given)	0.241	1.15	0.261	1.17	0.31	1.47	0.313	1.29	0.24	1.19	0.294	1.08	0.365	1.51	0.279	1.42	0.153	0.994	0.186	0.577
NNc1cccc(/C=C/c2ccccc2)cc1=O	7.78	> 100	33.5	> 100	12.4	44.7	4.31	50.1	3.61	42.3	4.66	> 100	4.27	> 100	14.9	> 100	6.93	> 100	26.7	> 100
O=c1nc(Nc2cccc(Cl)c2)oc2cc(Cl)oc(=O)c12	19.7	60.6	22.5	95.7	8.37	26.9	5.34	20.8	16.7	39.9	10.9	> 100	3.69	14.2	20	> 100	5.08	20.6	10.3	23.9
CCOC(=O)C(CO)c1nc2c([nH]c1=O)c(=O)n(C)c(=O)n2C (stereo not given)		> 100		> 100		> 100		> 100		> 100				> 100		> 100		> 100		> 100
COc1ccc(-c2cc(/C=C3\C(=O)Nc4ccc(Cl)cc43)[nH]n2)cc1	6.54	18.5	6.85	19.3	4.02	15.2	1.86	4.47	3.81	13	4.31	17.3	6.48	19.1	10.4	28	3.16	12.1	8.78	21.4
COC(=O)c1sc(C(=O)OC)c2c1CSC2		> 100		> 100		> 100		> 100		> 100		> 100		> 100		> 85.8		> 81		> 100
CC(C)c1ccc(/C(C(=O)O)=C(\O)C(=O)O)cc1		> 100		> 100		> 100		> 100		> 100		> 100		> 100		> 100		> 100		> 100
C=C1C(=O)O[C@H]2[C@H]1CC/C(COC(=O)NCc1ccc(Cn3c(=O)sn(CCCCl)c3=O)cc1)=C\CC[C@@]1(C)O[C@@H]21	19.2	34.6	1.48	2.91	1.93	4.5	1.8	3.89	11.3	30.5	1.67	3.83	2.63	10.3	4.84	17.4	5.05	17.2	1.61	3.41
N#Cc1cnc2cc(OC[C@@H](O)CO)c(NC(=O)CC3CSSC3)cc2c1Nc1ccc(OCc2cccc(F)c2)c(Cl)c1	0.842	1.72	0.155	0.523	0.0828	0.175	0.113	0.303	0.104	0.261	0.128	0.381	0.0814	0.771	0.381	1.18	0.777	1.59	0.195	0.829
N=C(N=C(N)N)N1CCN(c2ccncc2)CC1	> 1000	> 1000	> 1000	> 1000	> 1000	> 1000	> 1000	> 1000	> 1000	> 1000	> 1000	> 1000	> 1000	> 1000	> 1000	> 1000			> 1000	> 1000
Cn1c(=O)c(Oc2ccccc2F)cc2cnc(NC3CCOCC3)nc21	> 25	> 25	> 25	> 25	> 25	> 25	> 25	> 25	> 25	> 25	> 25	> 25	> 25	> 25	> 25	> 25	> 25	> 25	> 25	> 25
CCCCCCCCCCN(CCCCCCCCCC)CC(=O)c1ccc2cc(Br)c3ccccc3c2c1	4.15	14.4	10.9	23.6	1.91	3.53	1.76	3.42	1.98	3.98	2.38	5.16	3.07	9.47	2.04	5.75	1.91	3.55	2.11	4.4
OCCSCc1ccccc1		> 100		> 100		> 100		> 100		> 100		> 100		> 100		> 100		> 100		> 100
Nc1ccc(S(=O)(=O)C23CC4CC(CC(C4)C2)C3)cc1		> 100		> 100		> 100		> 100		> 100				> 100		> 100		> 100		> 100
C[C@]1(CO)[C@H]2CC[C@@]34C=C[C@@](CO)(CC[C@H]3[C@]2(C)CC[C@H]1O)C4		> 100		> 100		> 100		> 100				> 100		> 100		> 100		> 100		> 100
Cc1nc2ccc(Nc3nc(NCCN4CCOCC4)nc(Nc4ccc(F)cc4)n3)cc2n1Cc1ccccc1	3.69	> 100	2.13	9.33	1.86	3.66	2.23	6.25	3.59	13.2			5.82	33.9	3.07	15.2			1.74	3.27
